Reference: ChEMBL document CHEMBL1201862, “PubChem BioAssay data set” (2004)
Calls of active or inactive are those of the source.

Assays:
HEK293 [1] = experiment: cells; assay type: functional, cell-based; conditions: Homo sapiens
Streptokinase A = target: T1, Streptokinase A (Streptococcus pyogenes serotype M1, UniProt P10520); experiment: S. pyogenes streptokinase expression inhibitors, potency, dose response, plasminogen activation absorbance, OD405 (AID 1914); assay type: functional, Streptococcus pyogenes M1 GAS;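 note: secreted streptokinase activity via plasminogen activation per viability signal from cell pellet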
T1 sequence (P10520 whole entry): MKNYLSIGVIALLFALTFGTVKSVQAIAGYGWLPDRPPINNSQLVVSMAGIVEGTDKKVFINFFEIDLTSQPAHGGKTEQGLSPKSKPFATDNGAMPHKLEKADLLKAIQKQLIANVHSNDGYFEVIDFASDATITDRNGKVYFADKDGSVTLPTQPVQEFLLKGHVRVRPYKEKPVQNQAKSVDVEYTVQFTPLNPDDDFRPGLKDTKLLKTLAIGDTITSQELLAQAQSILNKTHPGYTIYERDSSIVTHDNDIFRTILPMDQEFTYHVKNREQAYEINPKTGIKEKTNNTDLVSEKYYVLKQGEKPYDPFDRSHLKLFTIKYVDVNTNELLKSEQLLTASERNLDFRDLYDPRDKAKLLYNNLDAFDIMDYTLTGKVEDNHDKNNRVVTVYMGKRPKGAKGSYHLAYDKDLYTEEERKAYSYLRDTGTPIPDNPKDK

Streptococcus = experiment: Group A Streptococcus viability loss, dose response, counter-screen for streptokinase expression inhibitor project, luminescence, BacTiterGlo (AID 1915); assay type: functional, organism-based;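 note: potency for reduction of bacterial viability or growth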
HEK293 [2] = experiment: NOD1 signaling inhibitors, primary screen, cell-based, luminescence, uHTS (AID 1578); assay type: functional; conditions: Homo sapiens
HEK293 [3] = experiment: NOD2 signaling inhibitors in MDP-stimulated cells, cell-based, uHTS, luminescence (AID 2001); assay type: functional; conditions: Homo sapiens
HEK293 [4] = experiment: cells; assay type: functional, cell-based; conditions: Homo sapiens; remark: listed apart in the source
[5] = system: Streptococcus sp. 'group A'; experiment: growth inhibition of control SK(-) GAS strain, dose response, counter-screen for streptokinase expression inhibitor project, luminescence, kanamycin, BacTiterGlo, confirmation (AID 1900); assay type: functional, organism-based
[6] = target: T2, Sentrin-specific protease 8 (Homo sapiens, UniProt Q96LD8); assay type: functional;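 note: luminescence read-out of SENP8 inhibition, dose-response confirmation following an ultra-high-throughput screen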
T2 sequence (Q96LD8 whole entry): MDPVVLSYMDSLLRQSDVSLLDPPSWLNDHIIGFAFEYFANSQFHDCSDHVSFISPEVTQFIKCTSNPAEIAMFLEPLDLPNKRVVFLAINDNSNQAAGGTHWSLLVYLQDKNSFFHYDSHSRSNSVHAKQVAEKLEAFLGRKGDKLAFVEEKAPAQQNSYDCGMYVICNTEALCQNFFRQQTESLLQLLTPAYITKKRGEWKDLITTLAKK

[7] = target: T3, Sentrin-specific protease 7 (Homo sapiens, UniProt Q9BQF6); assay type: functional;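 note: Luminescence-based dose-response confirmation of ultra-high-throughput screening hits, measuring inhibition of SENP7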
T3 sequence (Q9BQF6 whole entry): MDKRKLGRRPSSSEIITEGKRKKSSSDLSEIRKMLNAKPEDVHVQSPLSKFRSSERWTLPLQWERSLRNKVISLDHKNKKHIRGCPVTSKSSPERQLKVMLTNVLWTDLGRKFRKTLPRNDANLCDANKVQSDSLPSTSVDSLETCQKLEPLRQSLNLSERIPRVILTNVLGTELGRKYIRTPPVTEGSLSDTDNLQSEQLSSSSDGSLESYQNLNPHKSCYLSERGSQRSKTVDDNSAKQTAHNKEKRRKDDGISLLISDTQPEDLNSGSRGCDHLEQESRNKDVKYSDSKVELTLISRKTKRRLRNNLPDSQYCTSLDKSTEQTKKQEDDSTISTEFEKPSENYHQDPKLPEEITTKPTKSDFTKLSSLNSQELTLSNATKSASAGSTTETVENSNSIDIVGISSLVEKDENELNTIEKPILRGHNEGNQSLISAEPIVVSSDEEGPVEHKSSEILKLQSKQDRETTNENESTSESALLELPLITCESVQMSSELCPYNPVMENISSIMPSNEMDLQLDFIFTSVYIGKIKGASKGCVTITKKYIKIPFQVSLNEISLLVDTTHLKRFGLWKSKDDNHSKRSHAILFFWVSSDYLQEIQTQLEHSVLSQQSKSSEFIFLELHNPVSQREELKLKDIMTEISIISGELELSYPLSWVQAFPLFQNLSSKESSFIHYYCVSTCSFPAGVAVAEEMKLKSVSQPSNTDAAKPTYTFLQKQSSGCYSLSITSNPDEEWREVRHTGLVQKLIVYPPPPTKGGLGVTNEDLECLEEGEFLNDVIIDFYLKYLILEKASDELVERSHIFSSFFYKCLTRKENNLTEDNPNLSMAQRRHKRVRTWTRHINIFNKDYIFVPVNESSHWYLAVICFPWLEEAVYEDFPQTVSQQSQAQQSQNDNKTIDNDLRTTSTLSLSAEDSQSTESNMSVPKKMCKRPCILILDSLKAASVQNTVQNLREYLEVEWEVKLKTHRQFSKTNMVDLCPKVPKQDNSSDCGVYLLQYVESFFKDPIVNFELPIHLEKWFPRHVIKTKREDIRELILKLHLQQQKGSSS

Caspase-3 = target: T4, Caspase-3 (Homo sapiens, UniProt P42574); assay type: functional;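 note: Dose-response selectivity test against caspase-3 for candidate inhibitors of sentrin-specific proteases (SENPs)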
T4 sequence (P42574 whole entry): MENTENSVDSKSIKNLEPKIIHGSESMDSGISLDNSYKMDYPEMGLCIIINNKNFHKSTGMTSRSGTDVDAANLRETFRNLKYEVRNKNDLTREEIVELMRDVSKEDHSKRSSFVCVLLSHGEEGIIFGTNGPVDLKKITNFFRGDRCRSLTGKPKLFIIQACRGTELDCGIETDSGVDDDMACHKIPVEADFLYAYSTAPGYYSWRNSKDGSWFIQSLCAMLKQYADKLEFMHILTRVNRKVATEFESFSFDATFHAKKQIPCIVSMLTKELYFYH

[8] = target: T5, Sentrin-specific protease 6 (Homo sapiens, UniProt Q9GZR1); assay type: functional;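 note: Luminescence-based dose-response confirmatory assay of SENP6 inhibition, following up an ultra-high-throughput screen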
T5 sequence (Q9GZR1 whole entry): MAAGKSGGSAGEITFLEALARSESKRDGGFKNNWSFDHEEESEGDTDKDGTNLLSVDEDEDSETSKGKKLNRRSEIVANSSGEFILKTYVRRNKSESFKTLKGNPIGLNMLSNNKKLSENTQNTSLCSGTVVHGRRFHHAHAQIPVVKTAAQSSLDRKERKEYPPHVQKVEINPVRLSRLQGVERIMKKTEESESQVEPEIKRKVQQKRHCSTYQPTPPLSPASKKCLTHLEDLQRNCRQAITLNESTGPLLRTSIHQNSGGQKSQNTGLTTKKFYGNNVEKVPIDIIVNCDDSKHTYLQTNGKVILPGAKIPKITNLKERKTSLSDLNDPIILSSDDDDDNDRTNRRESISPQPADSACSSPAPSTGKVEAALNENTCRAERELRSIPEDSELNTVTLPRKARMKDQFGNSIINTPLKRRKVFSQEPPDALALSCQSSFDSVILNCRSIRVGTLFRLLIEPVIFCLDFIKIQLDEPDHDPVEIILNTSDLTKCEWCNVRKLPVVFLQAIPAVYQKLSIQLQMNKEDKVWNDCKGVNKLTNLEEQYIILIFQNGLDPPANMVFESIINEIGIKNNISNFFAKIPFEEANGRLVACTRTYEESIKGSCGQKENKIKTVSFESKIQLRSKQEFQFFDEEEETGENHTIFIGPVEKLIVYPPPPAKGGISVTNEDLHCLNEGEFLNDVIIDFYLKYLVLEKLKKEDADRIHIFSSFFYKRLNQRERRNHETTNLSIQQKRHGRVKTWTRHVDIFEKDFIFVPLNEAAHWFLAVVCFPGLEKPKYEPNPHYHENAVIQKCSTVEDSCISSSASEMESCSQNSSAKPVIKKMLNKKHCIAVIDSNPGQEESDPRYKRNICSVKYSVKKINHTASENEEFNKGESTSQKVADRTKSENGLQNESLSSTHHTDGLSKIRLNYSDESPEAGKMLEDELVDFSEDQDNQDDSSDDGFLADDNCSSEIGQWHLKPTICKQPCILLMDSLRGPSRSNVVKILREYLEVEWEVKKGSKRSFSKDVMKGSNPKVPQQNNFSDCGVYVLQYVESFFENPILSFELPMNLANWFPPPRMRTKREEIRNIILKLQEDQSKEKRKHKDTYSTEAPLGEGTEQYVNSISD

[9] = control 3'UTR Renilla luciferase suppression, dose response, counter-screen for Shn3 inhibitor project, cell-based, Clone20-Shn3RL, cherry-picked (AID 624133); assay type: functional
[10] = Shn3 3'UTR reporter inhibitors, dose response, cell-based, Clone20 osteoblasts, firefly luciferase, cherry-picked (AID 624132); assay type: functional;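 note: firefly luciferase luminescence from reporter carrying the Shn3 3'UTR in osteoblasts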
[11] = HepG2 cell cytotoxicity, dose response, cytotoxicity control for Shn3 inhibitor project, CellTiter-Glo, cherry-picked (AID 624134); assay type: functional, cell-based
Cytochrome P450 2C9 = Cytochrome P450 2C9 (Homo sapiens, UniProt P11712)
[12] = inhibitors of SNCA 5'UTR-driven reporter translation, confirmation, H4 neuroglioma cells, luminescence (AID 1988); assay type: functional, cell-based
[13] = Luminescence Cell-Based Dose Response HTS to Identify Inhibitors of 5'UTR Stem-Loop Driven Prion Protein mRNA Translation in H4 Neuroglioblastoma Cells. [Related pubchem assays: 1827 (Project Summary), 1813 (Primary HTS)]; assay type: functional
Cytochrome P450 2C19 = Cytochrome P450 2C19 (Homo sapiens, UniProt P33261); experiment: Cytochrome panel assay with activity outcomes. Panel member name: p450-cyp2c19 Compounds with AC50 equal or less than 10 uM are considered active; assay type: functional; conditions: read-out: AC50
[14] = inhibitors of firefly luciferase expression or activity, dose response, H4 neuroglioma cells, luminescence (AID 1990); assay type: functional, cell-based
Vero = experiment: cells; assay type: functional; conditions: Chlorocebus sabaeus
[15] = growth suppression of PTEN-null colon cells, dose response, cell-based, HCT116 PTEN knockout (AID 1047); assay type: functional;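 note: HCT116 colon tumor cells with PTEN knocked out; cells exposed to compound for 60 hours before readout; potency for loss of cell viability measured by luminescence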
[16] = growth suppression of beta-catenin-knockout colon cells, dose response, cell-based, HCT116, human colon tumor (AID 1045); assay type: functional;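 note: HCT116 colon tumor cells with beta catenin knocked out; cells exposed to compound for 60 hours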
cells = assay type: functional
[17] = microbe, parasite or virus in culture; assay type: functional; conditions: Mycobacterium tuberculosis

Cytochrome P450 2C9, sequence (P11712 whole entry): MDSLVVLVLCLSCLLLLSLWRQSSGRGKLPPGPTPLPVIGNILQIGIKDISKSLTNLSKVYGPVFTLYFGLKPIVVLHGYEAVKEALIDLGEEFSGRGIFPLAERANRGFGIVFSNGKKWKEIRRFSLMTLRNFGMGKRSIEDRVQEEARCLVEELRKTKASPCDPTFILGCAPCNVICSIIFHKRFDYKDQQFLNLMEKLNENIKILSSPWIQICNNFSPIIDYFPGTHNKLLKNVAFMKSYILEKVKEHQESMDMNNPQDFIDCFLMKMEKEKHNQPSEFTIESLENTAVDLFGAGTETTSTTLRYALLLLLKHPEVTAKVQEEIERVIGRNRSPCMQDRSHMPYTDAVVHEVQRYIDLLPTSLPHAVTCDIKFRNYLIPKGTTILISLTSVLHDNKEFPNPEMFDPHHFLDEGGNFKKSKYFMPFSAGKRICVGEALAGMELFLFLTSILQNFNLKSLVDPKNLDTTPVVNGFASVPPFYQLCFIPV
Cytochrome P450 2C19, sequence (P33261 whole entry): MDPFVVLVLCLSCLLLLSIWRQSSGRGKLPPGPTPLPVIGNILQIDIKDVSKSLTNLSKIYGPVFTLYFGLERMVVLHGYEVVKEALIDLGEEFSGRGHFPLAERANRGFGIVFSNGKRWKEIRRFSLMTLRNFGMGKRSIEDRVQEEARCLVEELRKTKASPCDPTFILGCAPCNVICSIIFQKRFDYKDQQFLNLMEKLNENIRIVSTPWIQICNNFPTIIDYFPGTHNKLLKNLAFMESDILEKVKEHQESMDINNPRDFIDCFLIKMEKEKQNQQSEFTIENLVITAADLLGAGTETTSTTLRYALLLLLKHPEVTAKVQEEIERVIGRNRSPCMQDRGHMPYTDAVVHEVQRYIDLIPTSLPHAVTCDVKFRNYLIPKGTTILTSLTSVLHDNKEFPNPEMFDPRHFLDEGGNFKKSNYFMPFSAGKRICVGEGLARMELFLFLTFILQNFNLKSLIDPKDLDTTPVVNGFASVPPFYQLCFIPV

Structure (SMILES): Cn1c(O)c(N=NC(S)=Nc2ccccc2F)c2cc(S(=O)(=O)N3CCOCC3)ccc21
- IC50 (HEK293 [1]): > 20 µM (inactive)
- EC50 (Streptokinase A): > 150 µM (not active)
- EC50 (Streptococcus): 44.2 µM (active)
- EC50 (HEK293 [2]): > 20 µM (inactive)
- IC50 (HEK293 [3]): 9.77 µM (active)
- IC50 (HEK293 [4]): 19.1 µM (active)
- EC50 [5]: 7.47 µM (active)

Structure (SMILES): O=c1c2ccccc2nnn1COc1cccc(Cl)c1
- IC50 [6]: 6.62 µM (active)
- IC50 [7]: 6.41 µM (active)
- IC50 (Caspase-3): 16.1 µM (active)
- IC50 [8]: 34 µM (active)

Structure (SMILES): CCc1c(C)nc2ncnn2c1NCCc1ccc(Cl)cc1
- AC50 [9]: 3.82 µM (active)
- AC50 [10]: 2.17 µM (active)
- AC50 [11]: 60.2 µM (active)

Structure (SMILES): COc1cccc(/C=C2\CCC(C3CCCC3)C2=O)c1 (stereo not drawn)
- IC50 [6]: 33.4 µM (active)
- IC50 [7]: 11.8 µM (active)
- IC50 (Caspase-3): 27.3 µM (active)
- IC50 [8]: 25.5 µM (active)

Structure (SMILES): Cc1cccc(CNc2cc(-c3cccc(NS(C)(=O)=O)c3)ncn2)c1
- AC50 (Cytochrome P450 2C9): inconclusive

Structure (SMILES): CC(=O)Nc1ccc(C#Cc2ccc(NC(C)=O)cc2)cc1
- AC50 (Cytochrome P450 2C9): inconclusive
- EC50 [12]: 8.38 µM (active)
- EC50 [13]: 10.5 µM (active)
- EC50 (Streptokinase A): > 150 µM (not active)
- EC50 (Streptococcus): 9.38 µM (active)
- AC50 (Cytochrome P450 2C19): 0.00631 µM (inconclusive)
- EC50 [14]: 16.5 µM (active)
- EC50 [5]: 0.953 µM (active)

Structure (SMILES): O=C(CC1(O)C(=O)N(Cc2cccc3ccccc23)c2ccccc21)c1cccnc1 (stereo not drawn)
- CC50 (Vero): > 25 µM (active)

Structure (SMILES): Cc1cccc(Nc2nnc(SCC(=O)NC(=O)Nc3ccc4c(c3)OCCO4)s2)c1
- EC50 [15]: 13 µM (active)
- EC50 [16]: 9.93 µM (active)
- CC50 (Vero): > 25 µM (active)

Structure (SMILES): CN(Cc1ccco1)c1cc(-c2cccc(C#N)c2)ncn1
- AC50 (Cytochrome P450 2C9): inconclusive

Structure (SMILES): COc1ccc(OC(=O)c2cc3ccccc3o2)cc1
- IC50 [6]: > 100 µM (inactive)
- IC50 [7]: 5.34 µM (active)
- IC50 (Caspase-3): 33 µM (active)
- IC50 (cells): 16.6 µM (active)
- IC50 [8]: > 100 µM (inactive)

Structure (SMILES): Cc1ccc(NC(=O)CSc2ccc3c(c2)OCCO3)c(O)c1
- AC50 [9]: 0.525 µM (active)
- AC50 [10]: 0.343 µM (active)
- AC50 [11]: 7.27 µM (active)

Structure (SMILES): Cc1ccc(S(C)=NS(=O)(=O)c2ccc(C)cc2)cc1 (stereo not drawn)
- AC50 (Cytochrome P450 2C9): inconclusive
- AC50 (Cytochrome P450 2C19): 7.08 µM (inconclusive)

Structure (SMILES): CCc1ccccc1NC(=O)c1ccc(-n2c(C)ccc2C)cc1
- AC50 (Cytochrome P450 2C9): inconclusive

Structure (SMILES): O=C(NC1C2CC3CC(C2)CC1C3)c1ccc(N2CCNCC2)c([N+](=O)[O-])c1 (stereo not drawn)
- CC50 (Vero): > 25 µM (active)

Structure (SMILES): Cc1ccc(F)cc1CNC(=O)c1cc(COc2ccc3ncccc3c2)on1
- CC50 [17]: > 40 µM (active)
- AC50 [9]: 4.3 µM (active)
- AC50 [10]: 4.88 µM (active)
- AC50 [11]: 6.33 µM (active)

Structure (SMILES): O=C(C=Cc1ccccn1)c1ccccc1
- CC50 (Vero): 9.58 µM (active)

Structure (SMILES): Cc1cccc(C(=O)Nc2cccc(C(=O)N/N=C/c3ccc4c(c3)OCO4)c2)c1
- IC50 [6]: 35 µM (active)
- IC50 [7]: 14.2 µM (active)
- IC50 (Caspase-3): 13 µM (active)
- IC50 [8]: 15.2 µM (active)
